Test results as given in ChEMBL document CHEMBL4706559, “New indolylarylsulfone non-nucleoside reverse transcriptase inhibitors show low nanomolar inhibition of single and double HIV-1 mutant strains” (Eur J Med Chem, 2020).

Columns and labels:
[1] = Cytotoxicity against human MT-4 cells assessed as reduction in cell viability by MTT assay; assay type: cell-based, MT4
[2] = test system: Human immunodeficiency virus 1; experiment: Antiviral activity against HIV1 harboring RT K103N/Y181C double mutant infected in human MT4 cells assessed as protection against virus-induced cytopathic effect by MTT assay; assay type: functional, organism-based; conditions: Human immunodeficiency virus 1, MT4
[3] = test system: Human immunodeficiency virus 1; experiment: Antiviral activity against HIV-1 NL4-3 infected in human MT-4 cells assessed as virus induced cytopathic effect by MTT assay; assay type: functional, organism-based; conditions: Human immunodeficiency virus 1, NL4-3, MT4
[4] = test system: Human immunodeficiency virus 1; experiment: Resistance index, ratio of EC50 for antiviral activity against HIV1 harboring RT K103N/Y181C double mutant infected in human MT4 cells to EC50 for antiviral activity against HIV1 NL4-3 infected in human MT4 cells; assay type: functional
[5] = test system: Human immunodeficiency virus 1; experiment: Antiviral activity against HIV1 harboring RT K103N mutant infected in human MT4 cells assessed as protection against virus-induced cytopathic effect by MTT assay; assay type: functional, organism-based; conditions: Human immunodeficiency virus 1, MT4
[6] = Selectivity ratio of CC50 for human MT4 cells to EC50 for antiviral activity against HIV-1 NL4-3 infected in human MT4 cells; assay type: toxicity, cell-based; conditions: read-out: Ratio CC50/EC50
[7] = test system: Human immunodeficiency virus 1; experiment: Antiviral activity against wild type HIV-1 P1 infected in human C8166 cells assessed as reduction in viral RNA production at 1 nM; assay type: functional; conditions: Human immunodeficiency virus 1, P1, C8166
[8] = target: Human immunodeficiency virus type 1 reverse transcriptase (Human immunodeficiency virus 1, UniProt Q72547, K103N); experiment: Inhibition of RNA-dependent DNA polymerase activity of recombinant HIV-1 p66/p51 reverse transcriptase K103N mutant assessed as inhibition of [3H]dTTP incorporation using poly(rA)/oligo(dT) as templates incubated for 15 mins by MicroBeta scintillation counting method
[9] = test system: Human immunodeficiency virus 1; experiment: Antiviral activity against wild type HIV-1 P1 infected in human C8166 cells assessed as reduction in viral RNA production at 5 nM; assay type: functional; conditions: Human immunodeficiency virus 1, P1, C8166
[10] = Inhibition of RNA-dependent DNA polymerase activity of recombinant HIV-1 p66/p51 reverse transcriptase K103N/Y181C mutant assessed as inhibition of [3H]dTTP incorporation using poly(rA)/oligo(dT) as templates incubated for 15 mins by MicroBeta scintillation counting method; design: species or system Human immunodeficiency virus 1
[11] = test system: Human immunodeficiency virus 1; experiment: Antiviral activity against wild type HIV-1 P1 infected in human C8166 cells assessed as reduction in viral RNA production at 25 nM; assay type: functional; conditions: Human immunodeficiency virus 1, P1, C8166
[12] = test system: Human immunodeficiency virus 1; experiment: Antiviral activity against wild type HIV-1 P1 infected in human C8166 cells assessed as reduction in viral p24 antigen production at 25 nM; assay type: functional; conditions: Human immunodeficiency virus 1, P1, C8166
[13] = target: Human immunodeficiency virus type 1 reverse transcriptase (Human immunodeficiency virus 1, UniProt Q72547); experiment: Inhibition of RNA-dependent DNA polymerase activity of wild type recombinant HIV-1 His-tagged p66/p51 reverse transcriptase assessed as inhibition of [3H]dTTP incorporation using poly(rA)/oligo(dT) as templates incubated for 15 mins by MicroBeta scintillation counting method
[14] = Inhibition of RNA-dependent DNA polymerase activity of recombinant HIV-1 p66/p51 reverse transcriptase Y188L mutant assessed as inhibition of [3H]dTTP incorporation using poly(rA)/oligo(dT) as templates incubated for 15 mins by MicroBeta scintillation counting method; design: species or system Human immunodeficiency virus 1
[15] = test system: Human immunodeficiency virus 1; experiment: Antiviral activity against HIV1 harboring RT Y181C mutant infected in human MT4 cells assessed as protection against virus-induced cytopathic effect by MTT assay; assay type: functional, organism-based; conditions: Human immunodeficiency virus 1, MT4
[16] = test system: Human immunodeficiency virus 1; experiment: Resistance index, ratio of EC50 for antiviral activity against HIV1 harboring RT Y181C mutant infected in human MT4 cells to EC50 for antiviral activity against HIV1 NL4-3 infected in human MT4 cells; assay type: functional
[17] = test system: Human immunodeficiency virus 1; experiment: Antiviral activity against HIV1 harboring RT Y188L mutant infected in human MT4 cells assessed as protection against virus-induced cytopathic effect by MTT assay; assay type: functional, organism-based; conditions: Human immunodeficiency virus 1, MT4
[18] = test system: Human immunodeficiency virus 1; experiment: Resistance index, ratio of EC50 for antiviral activity against HIV1 harboring RT K103N mutant infected in human MT4 cells to EC50 for antiviral activity against HIV1 NL4-3 infected in human MT4 cells; assay type: functional
[19] = test system: Human immunodeficiency virus 1; experiment: Resistance index, ratio of EC50 for antiviral activity against HIV1 harboring RT Y188L mutant infected in human MT4 cells to EC50 for antiviral activity against HIV1 NL4-3 infected in human MT4 cells; assay type: functional

`Cc1cc(C)cc(S(=O)(=O)c2c(C(=O)NCc3cccc(O)c3)[nH]c3ccc(Cl)cc23)c1` gave a CC50 [1] of 27000 nM, an EC50 [2] of 110 nM and an EC50 [3] of less than 0.6 nM. The “Ratio EC50” value [4] was greater than 183, the EC50 [5] was less than 0.6 nM and the selectivity ratio [6] was greater than 44900. It also gave an inhibition at 0.001 µM [7] of 7%, an IC50 [8] of 2 nM and an inhibition at 0.005 µM [9] of 38%. For the same compound, the IC50 [10] was 45 nM, the inhibition at 0.025 µM [11] was 85% and the inhibition at 0.025 µM [12] was 55%. It also gave an IC50 [13] of 68 nM, an IC50 [14] of 33 nM and an EC50 [15] of 11 nM. For the same compound, the “Ratio EC50” value [16] was greater than 18.

In the case of `Cc1cc(C)cc(S(=O)(=O)c2c(C(=O)NC(C)C(=O)NCc3cccc(O)c3)[nH]c3ccc(Cl)cc23)c1` (configuration not stated), the CC50 [1] is reported as 23800 nM, the EC50 [2] is reported as 3670 nM and the EC50 [3] is reported as less than 0.6 nM. The “Ratio EC50” value [4] was greater than 5239, the EC50 [17] was 3200 nM and the “Ratio EC50” value [18] was greater than 31. The EC50 [5] was 18.5 nM, the selectivity ratio [6] was greater than 39600 and the IC50 [8] was 12 nM. The IC50 [10] was 842 nM, the IC50 [13] was 208 nM and the “Ratio EC50” value [19] was greater than 5340. The IC50 [14] was 34 nM, the EC50 [15] was 7.4 nM and the “Ratio EC50” value [16] was 12.

For `Cc1cc(C)cc(S(=O)(=O)c2c(C(=O)NCc3ccccc3N)[nH]c3ccc(Cl)cc23)c1`, the CC50 [1] was 46200 nM, the EC50 [2] was 23.5 nM and the EC50 [3] was less than 0.7 nM. The “Ratio EC50” value [4] was greater than 33, the EC50 [17] was 2.1 nM and the EC50 [5] was less than 0.7 nM. For the same compound, the selectivity ratio [6] was greater than 65900, the IC50 [8] was 7 nM and the inhibition at 0.005 µM [9] was 10%. For the same compound, the IC50 [10] was 15 nM, the inhibition at 0.025 µM [11] was 100% and the inhibition at 0.025 µM [12] was 90%. For the same compound, the IC50 [13] was 19 nM, the “Ratio EC50” value [19] was greater than 3 and the IC50 [14] was 57 nM. It also gave an EC50 [15] of less than 0.7 nM.
